The text below walks through data of patent US20250333421A1, “PYRIDAZINES OR 1,2,4-TRIAZINES SUBSTITUTED BY SPIROCYCLIC AMINES” (Janssen Pharmaceutica NV, priority 2021, published 2025).

For one assay, the system named is MOLM14 cells. Kind of assay: Proliferation assay (spheroid assay) in MOLM14. The class given is cell-based. To be noted: Homo sapiens, MOLM-14, 192 h; MOLM14 (MLL-AF9), 8 days, confluence as measure of spheroid size; read-out: spheroid assay_OneTime MOLM14 IC50. On the procedure:
(§1) The anti-proliferative effect of menin/MLL protein/protein interaction inhibitor test compounds was assessed in human leukemia cell lines. The cell line MOLM14 harbors a MLL translocation and expresses the MLL fusion proteins MLL-AF9, respectively, as well as the wildtype protein from the second allele. […] KO-52 was used as a control cell line containing two MLL (KMT2A) wildtype alleles in order to exclude compounds that display general cytotoxic effects.
MOLM14 cells were cultured in RPMI-1640 (Sigma Aldrich) supplemented with 10% heat-inactivated fetal bovine serum (HyClone), 2 mM L-glutamine (Sigma Aldrich) and 50 µg/ml gentamycin (Gibco). KO-52 cell lines were propagated in alpha-MEM (Sigma Aldrich) supplemented with 20% heat-inactivated fetal bovine serum (HyClone), 2 mM L-glutamine (Sigma Aldrich) and 50 µg/ml gentamycin (Gibco).
In order to assess the anti-proliferative effects, 200 MOLM14 cells, or 300 KO-52 cells were seeded in 200 μl media per well in 96-well round bottom, ultra-low attachment plates (Costar, catalogue number 7007). Cell seeding numbers were chosen based on growth curves to ensure linear growth throughout the experiment. Test compounds were added at different concentrations and the DMSO content was normalized to 0.3%. Cells were incubated for 8 days at 37° C. and 5% CO2. Spheroid like growth was measured in real-time by live-cell imaging (IncuCyteZOOM, Essenbio, 4× objective) acquiring images at day 8. Confluence (%) as a measure of spheroid size was determined using an integrated analysis tool.
In order to determine the effect of the test compounds over time, the confluence in each well as a measure of spheroid size, was calculated. Confluence of the highest dose of a reference compound was used as baseline for the LC (Low control) and the confluence of DMSO treated cells was used as 0% cytotoxicity (High Control, HC).
Absolute IC50 values were calculated as percent change in confluence as follows:
LC=Low Control: cells treated with e.g. 1 μM of the cytotoxic agent staurosporin, or e.g. cells treated with a high concentration of an alternative reference compound
GraphPad Prism (version 7.00) was used to calculate the IC50. Dose-response equation was used for the plot of % Effect vs Log10 compound concentration with a variable slope and fixing the maximum to 100% and the minimum to 0%.

The next assay relates to KO-52 cells. As to the kind of experiment: Proliferation assay (spheroid assay) in KO-52 control cell line. To be noted: Homo sapiens, 192 h; KO-52 (MLL wildtype control), 8 days, confluence as measure of spheroid size; read-out: spheroid assay_OneTime KO-52 IC50. It is filed as cell-based. How it is done: as §1
MOLM14 cells were cultured in RPMI-1640 (Sigma Aldrich) supplemented with 10% heat-inactivated fetal bovine serum (HyClone), 2 mM L-glutamine (Sigma Aldrich) and 50 µg/ml gentamycin (Gibco). […]
In order to assess the anti-proliferative effects, 200 MOLM14 cells, or 300 KO-52 cells were seeded in 200 μl media per well in 96-well round bottom, ultra-low attachment plates (Costar, catalogue number 7007). […] Spheroid like growth was measured in real-time by live-cell imaging (IncuCyteZOOM, Essenbio, 4× objective) acquiring images at day 8. Confluence (%) as a measure of spheroid size was determined using an integrated analysis tool.
In order to determine the effect of the test compounds over time, the confluence in each well as a measure of spheroid size, was calculated. […]
Absolute IC50 values were calculated as percent change in confluence as follows: […]

Another assay addresses T1, Menin/MLL (Homo sapiens, UniProt O00255, T541A).
T1 construct: Menin (a.a 1-610-6xhis tag)
T1 sequence (O00255 with tags, fused parts or gaps T541A): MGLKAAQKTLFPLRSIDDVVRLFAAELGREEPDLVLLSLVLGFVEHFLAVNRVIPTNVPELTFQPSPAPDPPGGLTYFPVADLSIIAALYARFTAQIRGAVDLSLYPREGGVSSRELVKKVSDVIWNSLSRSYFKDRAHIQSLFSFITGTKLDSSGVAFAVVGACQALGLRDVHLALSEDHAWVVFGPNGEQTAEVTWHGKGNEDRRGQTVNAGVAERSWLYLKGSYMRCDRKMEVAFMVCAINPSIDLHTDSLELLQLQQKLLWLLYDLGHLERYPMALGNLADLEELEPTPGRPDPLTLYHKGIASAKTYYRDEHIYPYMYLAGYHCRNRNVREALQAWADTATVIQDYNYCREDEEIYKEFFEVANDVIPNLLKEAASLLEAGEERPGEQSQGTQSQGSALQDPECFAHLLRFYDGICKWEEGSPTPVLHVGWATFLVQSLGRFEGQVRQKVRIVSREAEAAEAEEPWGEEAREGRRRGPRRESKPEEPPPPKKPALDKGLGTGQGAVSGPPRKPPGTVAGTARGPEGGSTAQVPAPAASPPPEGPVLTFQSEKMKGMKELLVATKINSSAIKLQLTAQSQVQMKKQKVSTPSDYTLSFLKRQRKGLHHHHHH
Kind of assay: Menin/MLL homogenous time-resolved fluorescence (HTRF) assay. It is filed as binding. To be noted: 30 min incubation of test compound with terbium chelate-labeled menin; FITC-MBM1 peptide. How it is done:
1) Menin/MLL homogenous time-resolved fluorescence (HTRF) assay
To an untreated, white 384-well microtiter plate was added 40 nL 200X test compound in DMSO and 4 μL 2X terbium chelate-labeled menin (vide infra for preparation) in assay buffer (40 mM Tris-HCl, pH 7.5, 50 mM NaCl, 1 mM DTT (dithiothreitol) and 0.05% Pluronic F-127). After incubation of test compound and terbium chelate-labeled menin for 30 min at ambient temperature, 4 μL 2X FITC-MBM1 peptide (FITC-β-alanine-SARWRFPARPGT-NH2 (SEQ ID NO: 2)) (“FITC” means fluorescein isothiocyanate) in assay buffer was added, the microtiter plate centrifuged at 1000 rpm for 1 min and the assay mixtures incubated for 15 min at ambient temperature. The relative amount of menin FITC--MBM1 complex present in an assay mixture is determined by measuring the homogenous time-resolved fluorescence (HTRF) of the terbium/FITC donor/acceptor fluorphore pair using an EnVision microplate reader (ex. 337 nm/terbium em. 490 nm/FITC em. 520 nm) at ambient temperature. The degree of fluorescence resonance energy transfer (the HTRF value) is expressed as the ratio of the fluorescence emission intensities of the FITC and terbium fluorophores (F^em 520 nm/F^em 490 nm). The final concentrations of reagents in the binding assay are 200 pM terbium chelate-labeled menin, 75 nM FITC-MBM1 peptide and 0.5% DMSO in assay buffer. Dose-response titrations of test compounds are conducted using an 11 point, four-fold serial dilution scheme, starting typically at 10 μM.
Compound potencies were determined by first calculating % inhibition at each compound concentration according to equation 1: […]
Where LC and HC are the HTRF values of the assay in the presence or absence of a saturating concentration of a compound that competes with FITC-MBM1 for binding to menin, and HTRF^compound is the measured HTRF value in the presence of the test compound. HC and LC HTRF values represent an average of at least 10 replicates per plate.
Where Bottom and Top are the lower and upper asymptotes of the dose-response curve, respectively, IC50 is the concentration of compound that yields 50% inhibition of signal and h is the Hill coefficient. IC50 values below 0.1 nM in the HTRF assay were reported as 0.1 nM in the Table below (detection limit).
Preparation of Terbium cryptate labeling of Menin: Menin (a.a 1-610-6xhis tag, 2.3 mg/mL in 20 mM Hepes (2-[4-(2-Hydroxyethyl)-1-piperazinyl]ethane sulfonic acid), 80 mM NaCl, 5 mM DTT (Dithiothreitol), pH 7.5) was labeled with terbium cryptate as follows. 200 μg of Menin was buffer exchanged into lx Hepes buffer. 6.67 μM Menin was incubated with 8-fold molar excess NHS (N-hydroxysuccinimide)-terbium cryptate for 40 minutes at room temperature. Half of the labeled protein was purified away from free label by running the reaction over a NAP5 column with elution buffer (0.1M Hepes, pH 7+0.1% BSA (bovine serum albumin)). The other half was eluted with 0.1 M phosphate buffered saline (PBS), pH7. 400 μl of eluent was collected for each, aliquoted and frozen at −80° C. The final concentration of terbium-labeled Menin protein was 115 μg/mL in Hepes buffer and 85 μg/mL in PBS buffer, respectively.

`CCN(C(=O)c1cc(F)ccc1Oc1nncnc1N1CCC2(C1)CN(C(CCCN(C)CCSC)C(C)C)C2)C(C)C` (single isomer, unassigned) [Compound 1]: the 50% inhibitory concentration (IC50) in the assay with MOLM14 cells worked out at 50 nM; in the assay with KO-52 cells, 11900 nM.
As for `CCN(C(=O)c1cc(F)ccc1Oc1nncnc1N1CCC2(C1)CN(C(CCCN(C)CCOC(F)(F)F)C(C)C)C2)C(C)C` (single isomer, unassigned) [Compound 2], the half-maximal inhibitory concentration (IC50) was determined as 0.376 nM on Menin/MLL, 20 nM in the assay on MOLM14 cells and 14600 nM with KO-52 cells.
